Experimental findings from patent US11136317B2, “NADPH oxidase 4 inhibitors” (ACTELION PHARMACEUTICALS LTD, priority 2015, dated 2021) are described below.

Bounds are passed on as bounds.

The target in experiment [1] is horseradish peroxidase / H2O2 (Armoracia rusticana, UniProt P00433). Nature of the experiment: Amplex Red counter screen assay (cells replaced by H2O2). Format: biochemical. The note with it: counter screen: H2O2-generating cells replaced by 1562.5 nM H2O2 in 1×PBS; read-out: IC50 Control. As to the method: In order to identify compounds that interfere with the activity assay either by inhibiting the activity of horseradish peroxidase or by directly interacting with the formed H2O2 a counter screen assay was established. This control assay is almost identical to the described Amplex Red activity assay with the only difference that the H2O2— generating cells are replaced by 1562.5 nM H2O2 in 1×PBS.
(In general: Counterscreens check selectivity or assay interference.)

In another experiment the target is T1, human NOX4 (Homo sapiens, UniProt Q9NPH5).
T1 construct: The full-length human NOX4 (NM_016931.3) transcript was cloned; expressed in transfected cells
T1 sequence (Q9NPH5 1-578): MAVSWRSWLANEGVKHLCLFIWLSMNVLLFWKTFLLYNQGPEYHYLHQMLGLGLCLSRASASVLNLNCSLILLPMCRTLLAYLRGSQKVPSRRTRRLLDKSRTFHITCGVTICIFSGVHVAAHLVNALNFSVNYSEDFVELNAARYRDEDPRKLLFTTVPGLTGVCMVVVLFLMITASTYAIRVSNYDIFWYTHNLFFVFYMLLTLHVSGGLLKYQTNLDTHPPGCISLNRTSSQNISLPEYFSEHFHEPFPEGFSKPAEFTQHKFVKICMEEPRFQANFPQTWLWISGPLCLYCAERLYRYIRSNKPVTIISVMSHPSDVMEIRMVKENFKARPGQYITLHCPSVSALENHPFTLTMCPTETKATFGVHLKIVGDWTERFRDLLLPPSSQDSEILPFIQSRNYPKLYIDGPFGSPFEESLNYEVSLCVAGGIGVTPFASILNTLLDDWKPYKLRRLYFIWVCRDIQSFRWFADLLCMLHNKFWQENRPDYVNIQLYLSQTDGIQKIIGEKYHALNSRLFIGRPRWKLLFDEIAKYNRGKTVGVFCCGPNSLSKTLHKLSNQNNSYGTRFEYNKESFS
T1 sequence (P13498 1-195 partner): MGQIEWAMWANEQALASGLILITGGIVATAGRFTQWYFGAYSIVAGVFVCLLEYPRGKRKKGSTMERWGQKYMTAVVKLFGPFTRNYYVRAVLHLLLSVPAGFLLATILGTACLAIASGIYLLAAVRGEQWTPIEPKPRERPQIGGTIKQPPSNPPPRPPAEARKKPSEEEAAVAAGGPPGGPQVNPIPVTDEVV
Nature of the experiment: Amplex Red activity assay (cellular H2O2 formation in hNOX4 T-REx-293 cells). Format: cell-based. The note with it: tet-induced 24 h, extracellular H2O2 by Amplex Red, 60 min 25° C., geometric mean if determined several times. The procedure, abridged: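 Tet-induced (1 μg/mL, 24 h) HEK293 T-REx cells stably expressing full-length human NOX4, 20 000 cells/well, exposed to compounds (10 concentrations, 50 μM to 100 nM; 1.25% DMSO) for 60 min at 25°C. Extracellular H2O2 detected by Amplex Red resorufin fluorescence (ex 550/em 600 nm) versus vehicle; IC50 calculated.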

horseradish peroxidase / H2O2, sequence (P00433 31-338): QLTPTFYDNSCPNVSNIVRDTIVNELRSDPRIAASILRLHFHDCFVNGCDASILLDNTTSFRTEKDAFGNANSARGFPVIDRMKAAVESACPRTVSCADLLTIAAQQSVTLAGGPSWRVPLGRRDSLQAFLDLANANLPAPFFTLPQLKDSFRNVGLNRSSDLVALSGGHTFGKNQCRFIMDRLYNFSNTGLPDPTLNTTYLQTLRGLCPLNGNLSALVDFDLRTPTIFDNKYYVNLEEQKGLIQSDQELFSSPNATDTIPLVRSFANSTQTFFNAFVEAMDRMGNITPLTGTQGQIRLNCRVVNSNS

As usually defined, the IC50 is the concentration needed to halve the response being measured. For “2,3-Dihydro-benzofuran-5-carboxylic acid (2-dimethylamino-benzothiazol-5-yl)-amide [Example 86]”, the IC50 in experiment [1] is over 50 µM; at human NOX4, 2.68 µM. The corresponding values for “2,3-Dihydro-benzofuran-5-carboxylic acid [2-(1-oxa-7-aza-spiro[3.5]non-7-yl)-benzooxazol-5-yl]-amide [Example 28]” are over 50 µM and 0.695 µM.

As to `CN1CCN(c2nc3cc(NC(=O)c4ccc5c(c4)N(C)CCO5)ccc3o2)CC1` [Example 193, 4-Methyl-3,4-dihydro-2H-benzo[1,4]oxazine-6-carboxylic acid [2-(4-methyl-piperazin-1-yl)-benzooxazol-5-yl]-amide], the IC50 on human NOX4 amounted to 4.04 µM. In the case of `CCN(CC)c1nc2cc(NC(=O)c3ccc4c(c3)N(C)CCO4)ccc2o1` [Example 194, 4-Methyl-3,4-dihydro-2H-benzo[1,4]oxazine-6-carboxylic acid (2-diethylamino-benzooxazol-5-yl)-amide], the IC50 at human NOX4 was found to be 3.58 µM. The same measure, in the same setting: the result for `CN1CCOc2ccc(C(=O)Nc3ccc4oc(N(C5CC5)C5COC5)nc4c3)cc21` [Example 195, 4-Methyl-3,4-dihydro-2H-benzo[1,4]oxazine-6-carboxylic acid [2-(cyclopropyl-oxetan-3-yl-amino)-benzooxazol-5-yl]-amide] reads 4.44 µM; that for `O=C(Nc1ccc2c(c1)CCO2)c1ccc2sc(N3CCCCC3)nc2c1` [Example 196, 2-Piperidin-1-yl-benzothiazole-5-carboxylic acid (2,3-dihydro-benzofuran-5-yl)-amide], 2.56 µM; that for `O=C(Nc1ccc2c(c1)CCO2)c1ccc2sc(N3CCC34COC4)nc2c1` [Example 197, 2-(6-Oxa-1-aza-spiro[3.3]hept-1-yl)-benzothiazole-5-carboxylic acid (2,3-dihydro-benzofuran-5-yl)-amide], 0.728 µM. Same read-out and setting: the result for `O=C(Nc1ccc2c(c1)CCO2)c1ccc2sc(N3CCC(F)(F)CC3)nc2c1` [Example 198, 2-(4,4-Difluoro-piperidin-1-yl)-benzothiazole-5-carboxylic acid (2,3-dihydro-benzofuran-5-yl)-amide] reads 45.2 µM; that for `O=C(Nc1ccc2c(c1)CCO2)c1ccc2sc(N3CCS(=O)(=O)CC3)nc2c1` [Example 199, 2-(1,1-Dioxo-thiomorpholin-4-yl)-benzothiazole-5-carboxylic acid (2,3-dihydro-benzofuran-5-yl)-amide], 23.9 µM. In the case of `COC1CCN(c2nc3cc(C(=O)Nc4ccc5c(c4)CCO5)ccc3s2)CC1` [Example 200, 2-(4-Methoxy-piperidin-1-yl)-benzothiazole-5-carboxylic acid (2,3-dihydro-benzofuran-5-yl)-amide], the IC50 at human NOX4 amounted to 2.75 µM.

With `CN1CCN(c2nc3cc(C(=O)Nc4ccc5c(c4)CCO5)ccc3s2)CC1` [Example 201, 2-(4-Methyl-piperazin-1-yl)-benzothiazole-5-carboxylic acid (2,3-dihydro-benzofuran-5-yl)-amide], the IC50 on human NOX4 was determined as 2.87 µM. Regarding `O=C(Nc1ccc2c(c1)CCO2)c1ccc2sc(N3CCC34CCOC4)nc2c1` (centres unmarked) [Example 202, 2-(6-Oxa-1-aza-spiro[3.4]oct-1-yl)-benzothiazole-5-carboxylic acid (2,3-dihydro-benzofuran-5-yl)-amide], at human NOX4, the IC50 came out at 0.729 µM. As for `O=C(Nc1ccc2c(c1)OCCO2)c1ccc2sc(N3CCC34COC4)nc2c1` [Example 203, 2-(6-Oxa-1-aza-spiro[3.3]hept-1-yl)-benzothiazole-5-carboxylic acid (2,3-dihydro-benzo[1,4]dioxin-6-yl)-amide], the IC50 at human NOX4 was 1.84 µM.

Take `O=C(Nc1ccc2c(c1)OCCO2)c1ccc2sc(N3CCC(F)(F)CC3)nc2c1` [Example 204, 2-(4,4-Difluoro-piperidin-1-yl)-benzothiazole-5-carboxylic acid (2,3-dihydro-benzo[1,4]dioxin-6-yl)-amide]: at human NOX4, the IC50 amounted to 25.5 µM.

Regarding `COC1CCN(c2nc3cc(C(=O)Nc4ccc5c(c4)OCCO5)ccc3s2)CC1` [Example 205, 2-(4-Methoxy-piperidin-1-yl)-benzothiazole-5-carboxylic acid (2,3-dihydro-benzo[1,4]dioxin-6-yl)-amide], the IC50 on human NOX4 stood at 26.8 µM. The same measure, in the same setting: the result for `CN1CCN(c2nc3cc(C(=O)Nc4ccc5c(c4)OCCO5)ccc3s2)CC1` [Example 206, 2-(4-Methyl-piperazin-1-yl)-benzothiazole-5-carboxylic acid (2,3-dihydro-benzo[1,4]dioxin-6-yl)-amide] reads 21.2 µM; that for `O=C(Nc1ccc2c(c1)OCCO2)c1ccc2sc(N3CCCCC3)nc2c1` [Example 207, 2-Piperidin-1-yl-benzothiazole-5-carboxylic acid (2,3-dihydro-benzo[1,4]dioxin-6-yl)-amide], 12.8 µM. Still for that read-out and setting: the result for `O=C(Nc1ccc2c(c1)OCCO2)c1ccc2sc(N3CCC34CCOC4)nc2c1` (centres unmarked) [Example 208, 2-(6-Oxa-1-aza-spiro[3.4]oct-1-yl)-benzothiazole-5-carboxylic acid (2,3-dihydro-benzo[1,4]dioxin-6-yl)-amide] reads 2.71 µM; that for `O=C(Nc1ccc2c(c1)OCO2)c1ccc2sc(N3CCC34COC4)nc2c1` [Example 209, 2-(6-Oxa-1-aza-spiro[3.3]hept-1-yl)-benzothiazole-5-carboxylic acid benzo[1,3]dioxol-5-ylamide], 1.5 µM; that for `COC1CCN(c2nc3cc(C(=O)Nc4ccc5c(c4)OCO5)ccc3s2)CC1` [Example 210, 2-(4-Methoxy-piperidin-1-yl)-benzothiazole-5-carboxylic acid benzo[1,3]dioxol-5-ylamide], 6.9 µM. On the same count and under the same terms, the result for `CN1CCN(c2nc3cc(C(=O)Nc4ccc5c(c4)OCO5)ccc3s2)CC1` [Example 211, 2-(4-Methyl-piperazin-1-yl)-benzothiazole-5-carboxylic acid benzo[1,3]dioxol-5-ylamide] reads 8.9 µM.
